Measurements published in BigSolDB 2.1.

O=C(Oc1ccccc1)c1ccccc1O
solubility (mole fraction)
Details | in ethanol | in isobutanol | in isopropanol | in methanol | in n-butanol | in n-propanol | in sec-butanol
283.15 K | 0.0226 | 0.0185 | 0.0169 | 0.0162 | 0.0337 | 0.0272 | 0.0381
288.15 K | 0.0361 | 0.0288 | 0.0273 | 0.0251 | 0.0511 | 0.043 | 0.0602
293.15 K | 0.0647 | 0.0517 | 0.0487 | 0.0459 | 0.0908 | 0.0756 | 0.105
298.15 K | 0.127 | 0.112 | 0.101 | 0.0946 | 0.182 | 0.152 | 0.201
303.15 K | 0.289 | 0.279 | 0.275 | 0.274 | 0.34 | 0.33 | 0.398
308.15 K | 0.715 | 0.709 | 0.702 | 0.694 | 0.75 | 0.718 | 0.752
